Laboratory results taken from BindingDB's records for doi:10.1016/j.bmcl.2012.07.086 (Shandong Academy of Sciences, 2012).
pIC50: −log10 of the molar value.

Target: T1, Aminopeptidase N (Sus scrofa, UniProt P15145)
T1 sequence (P15145 whole entry): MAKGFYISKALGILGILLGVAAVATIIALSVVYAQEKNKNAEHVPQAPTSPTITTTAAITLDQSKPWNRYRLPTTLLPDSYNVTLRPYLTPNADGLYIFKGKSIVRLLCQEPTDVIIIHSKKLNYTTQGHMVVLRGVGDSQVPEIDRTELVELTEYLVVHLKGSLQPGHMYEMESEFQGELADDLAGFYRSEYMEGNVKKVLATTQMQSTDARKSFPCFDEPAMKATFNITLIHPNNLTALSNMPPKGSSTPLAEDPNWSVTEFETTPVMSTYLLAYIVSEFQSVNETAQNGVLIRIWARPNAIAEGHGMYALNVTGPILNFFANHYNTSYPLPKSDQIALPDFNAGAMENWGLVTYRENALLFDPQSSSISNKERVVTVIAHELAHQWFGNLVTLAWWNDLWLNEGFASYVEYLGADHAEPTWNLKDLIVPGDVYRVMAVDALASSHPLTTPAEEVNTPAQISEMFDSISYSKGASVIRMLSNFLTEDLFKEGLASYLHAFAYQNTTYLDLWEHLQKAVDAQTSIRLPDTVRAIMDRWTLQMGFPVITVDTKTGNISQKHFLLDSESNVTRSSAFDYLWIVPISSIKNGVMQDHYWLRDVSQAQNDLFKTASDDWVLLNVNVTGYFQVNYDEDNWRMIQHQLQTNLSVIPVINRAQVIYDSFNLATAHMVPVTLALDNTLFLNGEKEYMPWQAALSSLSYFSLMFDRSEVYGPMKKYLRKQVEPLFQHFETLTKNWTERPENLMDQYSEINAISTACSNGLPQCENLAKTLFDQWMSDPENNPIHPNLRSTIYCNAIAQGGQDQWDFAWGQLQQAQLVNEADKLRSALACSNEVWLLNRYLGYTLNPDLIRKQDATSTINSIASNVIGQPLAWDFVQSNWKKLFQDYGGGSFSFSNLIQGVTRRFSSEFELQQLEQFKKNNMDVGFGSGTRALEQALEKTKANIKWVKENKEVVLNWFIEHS
Test: Inhibition of porcine kidney microsome aminopeptidase using L-Leu-p-nitroanilide as substrate after 30 mins

| SMILES | pIC50 |
| --- | --- |
| Cc1cc(C/N=N/c2ccc([N+](=O)[O-])cc2[N+](=O)[O-])c(C)n1-c1ccc(S(N)(=O)=O)cc1 | < 3.00 |
| O=C1NC(=O)C(N=Nc2cc([N+](=O)[O-])ccc2O)C(=O)N1 | < 3.00 |
